From the NIST ThermoML archive (doi:10.1016/j.tca.2004.11.022)
Numbers after ± are expanded uncertainties.

Key:
[1] = 101.33 kPa, Liquid; for mass density: Vibrating tube method; for speed of sound: Pulse-echo method
[2] = molar heat capacity at constant pressure; conditions: 101.33 kPa, Liquid, Small sample (50 mg) DSC

mass density ([1]; 288.15 K) | mass density ([1]; 293.15 K) | speed of sound ([1]; 298.15 K) | mass density ([1]; 298.15 K) | mass density ([1]; 308.15 K) | molar heat capacity at constant pressure ([2]; 288.15 K) | molar heat capacity at constant pressure ([2]; 298.15 K) | molar heat capacity at constant pressure ([2]; 308.15 K) | Compound
706.54 ± 0.26 kg/m3 | 702.53 ± 0.26 kg/m3 | 1172.1 ± 1.3 m/s | 698.5 ± 0.27 kg/m3 | 690.34 ± 0.27 kg/m3 | 250.12 ± 5 J/K/mol | 253.94 ± 5.1 J/K/mol | 258.03 ± 5.2 J/K/mol | CCCCCCCC [octane]
721.66 ± 0.41 kg/m3 | 717.75 ± 0.41 kg/m3 | 1206.3 ± 1.6 m/s | 713.85 ± 0.41 kg/m3 | 706.05 ± 0.41 kg/m3 | 280.13 ± 5.6 J/K/mol | 284.23 ± 5.7 J/K/mol | 288.8 ± 5.8 J/K/mol | CCCCCCCCC [nonane]
1076.56 ± 0.55 kg/m3 | 1070.02 ± 0.55 kg/m3 | 1197.1 ± 1.6 m/s | 1063.42 ± 0.55 kg/m3 | 1050.11 ± 0.54 kg/m3 | 164.03 ± 3.3 J/K/mol | 165.02 ± 3.3 J/K/mol | 166.3 ± 3.3 J/K/mol | COC(=O)OC [dimethyl carbonate]
